According to paper PMC9652300, “Neolignans isolated from Saururus cernuus L. (Saururaceae) exhibit efficacy against Schistosoma mansoni” (Scientific Reports, 2022):
Where two headings read alike, the source gives them in different places.

Assays:
S. mansoni adult worms [1] = conditions: cited from earlier work
[2] = Cytotoxicity MTT assay, HaCaT cells; type: cell-based, human; conditions: human, HaCaT cells (human epithelial cells); HaCaT cells, MTT, 72 h
Procedure: (§1) HaCaT (human epithelial cells) and Vero (monkey kidney cells) were obtained from the Banco de Células do Rio de Janeiro (BCRJ, RJ, Brazil) and the American Type Culture Collection (ATCC CCL-81; Manassas, VA, USA), respectively. Cells were cultured in DMEM medium supplemented with 10% heat-inactivated fetal bovine serum and antibiotics (100 U/mL penicillin and 100 μg/mL streptomycin) at 37 °C in a humidified atmosphere containing 5% CO2. They were maintained in 25 cm^2 culture flasks (Corning, Tewksbury, MA, USA) and harvested using 0.25% trypsin in 0.2 g/L EDTA solution.
(§2) The MTT assay was used to evaluate the cytotoxic activity as previously described[71],[72]. Briefly, cells were seeded (2 × 10^3/well in 96-well culture plates) and incubated with threo-austrobailignan-6 and verrucosin (started at 500 µM and followed a threefold dilution series) for 72 h at 37 °C and 5% CO2. MTT solution was added to each well and the absorbance was read on an Epoch Microplate Spectrophotometer (BioTek Instruments, Winooski, VT, USA) at 595 nm. The selectivity indices (SI) were calculated by dividing the 50% cytotoxic concentration (CC50) obtained on cells with 50% effective concentration (EC50) values determined on schistosomes.
(§3) Statistical analyses were performed using Graph Pad Prism software 8.0 (San Diego, CA, USA). Data are presented as the mean ± standard deviation (SD) of at least three independent experiments, EC50 and, CC50 values were calculated using sigmoid dose–response curves. For S. mansoni egg production, significant differences were determined by one-way analysis of variance (ANOVA) and applying Tukey's test for multiple comparisons with a level of significance set at P < 0.05.

S. mansoni adult worms [3] = experiment: Antischistosomal assay: viability of ex vivo adult worm pairs; type: cell-based
Procedure: The life cycle of S. mansoni (BH strain) is maintained by routine passage through Biomphalaria glabrata snails and Swiss mice at Guarulhos University (UNG, Guarulhos, SP, Brazil). Rodents, three weeks-old, were purchased from Animais de Laboratório Criação e Comércio (Paulínea, SP, Brazil). Both mice and snails were kept under environmentally controlled conditions (25 °C; humidity of 50%), with free access to food and water. Cercariae of S. mansoni were obtained from infected intermediate host snails in our laboratories as described previously[63],[64].
(§4) The antischistosomal assay was performed as previously described[65],[66]. Briefly, S. mansoni adult parasites were obtained from infected mice at day 42 post-infection (parasite ex vivo). One adult male and one adult female worms (i.e. one worm pairs) were incubated in flat bottom 24-well plates (Corning, New York, NY, USA) in the presence of threo-austrobailignan-6 and verrucosin (started at 50 µM and followed a twofold dilution series) in RPMI 1640 culture medium supplemented with 5% inactivated fetal calf serum and containing antibiotics (100 U/mL penicillin and 100 μg/mL streptomycin). The control schistosomes were assayed in a culture medium and 0.5% DMSO (representing the highest concentration of solvent). Each concentration (50, 25, 12.5, 6.25, 3.12 µM) was tested in five replicates, and the experiments were repeated three times. Parasites were kept for 72 h (37 °C, 5% CO2), and their viability was monitored microscopically at 2, 24, 48, and 72 h using both a Motic AE2000 inverted microscope (Vancouver, Canada) and a Leica EZ4E stereomicroscope (Wetzlar, Germany). The death of adult schistosomes was defined as no movement observed for at least 1 to 2 min of examination, whereas parasites with any body movement were considered viable. The percentage of viable adult schistosomes was calculated considering worms exposed to compounds vs control worms. For assessment of the reproductive fitness of S. mansoni, the number of eggs was counted daily using an inverted microscope (Motic) as previously described.
as §3

[4] = Cytotoxicity MTT assay, Vero cells; type: cell-based, African green monkey; conditions: African green monkey, Vero cells (monkey kidney cells); Vero cells, MTT, 72 h
Procedure: as §1, §2, §3

[5] = tested on: Vero (monkey kidney cells); experiment: Cytotoxicity MTT assay, Vero cells; type: cell-based, African green monkey; conditions: CC50 Vero / EC50 S. mansoni
Procedure: as §1, §2, §3

S. mansoni infections = tested on: S. mansoni infections; set-up: method as in PMID 25412105, PMID 28126024; conditions: systematic reviews and meta-analyses; cited from earlier work
[6] = tested on: S. mansoni adult worm pairs; experiment: Egg production (reproductive fitness) of paired adult worms; type: cell-based, Schistosoma mansoni; conditions: for total number of eggs vs control worms / oviposition: within 72 h
Procedure: as §4, §3

[7] = tested on: HaCaT (human epithelial cells); experiment: Cytotoxicity MTT assay, HaCaT cells; type: cell-based; conditions: CC50 HaCaT / EC50 S. mansoni
Procedure: as §1, §2, §3

[8] = Schistosoma mansoni, 72 h, adult worms, male and female, 72 h, read-out: EC50 (schistosomicidal activity)
[9] = Schistosoma mansoni, 72 h, ex vivo adult female worms, 72 h exposure, brackets = 95% confidence interval, read-out: S. mansoni EC50 Female
[10] = Schistosoma mansoni, 72 h, ex vivo adult male worms, 72 h exposure, brackets = 95% confidence interval, read-out: S. mansoni EC50 Male

2-oxopopulifolic acid methyl ester
in vitro effective concentration (S. mansoni adult worms [1]): 50 µM

C=CC(C)(O)CCC=C(C)CCC=C(C)C (mixture of isomers) [nerolidol]
in vitro effective concentration (S. mansoni adult worms [1]): 85 µM

CC1=CC(=O)CC2[C@]1(C)CC[C@@H](C)[C@]2(C)CCC(C)CC(=O)O (stereo partly drawn) [2-oxopopulifolic acid]
in vitro effective concentration (S. mansoni adult worms [1]): 50 µM

CC(C)CCCC(C)CCO (stereo not drawn) [3,7-dimethylloctanol]
in vitro effective concentration (S. mansoni adult worms [1]): 52 µM

O=C(C1CCCCC1)N1CC(=O)N2CCc3ccccc3C2C1 (stereo not drawn) [Praziquantel, praziquantel, reference compound]
CC50 at 72 h [2]: > 500 µM
EC50 (S. mansoni adult worms [3]; [8]): < 0.93 µM
EC50 (S. mansoni adult worms [3]; [9]): 0.8 µM
EC50 (S. mansoni adult worms [3]; [10]): 0.7 µM
mortality of adult worm pairs (S. mansoni adult worms [3]; praziquantel at 2 µM, monitored up to 72 h): mortality of all worms immediately
CC50 at 72 h [4]: > 500 µM
Monkey cells SI (Selectivity Index) [5]: > 714
cure rate (S. mansoni infections): approximately 75%

COc1cc(C[C@@H](C)[C@H](C)Cc2ccc3c(c2)OCO3)ccc1O [Threo-austrobailignan-6, threo-austrobailignan-6]
pairing of male and female parasites ([6]; 25 μM): remained coupled
total number of eggs vs control worms ([6]; 25 μM): significantly reduced
pairing of male and female parasites ([6]; 50 μM): separated
oviposition ([6]; 50 μM): complete lack of oviposition
Human cells SI (Selectivity Index) [7]: > 17.8
CC50 at 72 h [2]: > 500 µM
EC50 (S. mansoni adult worms [3]; [8]): < 30 µM
EC50 (S. mansoni adult worms [3]; [9]): 28.1 µM
EC50 (S. mansoni adult worms [3]; [10]): 22.9 µM
mortality at 25 µM (S. mansoni adult worms [3]; Schistosoma mansoni, 72 h, read-out: mortality of male worms): 100%
CC50 at 72 h [4]: > 500 µM
Monkey cells SI (Selectivity Index) [5]: > 17.8

COc1cc([C@H]2O[C@@H](c3ccc(O)c(OC)c3)[C@@H](C)[C@@H]2C)ccc1O [Verrucosin, verrucosin]
oviposition ([6]; 12.5 μM, P < 0.01): significant reduction
pairing of male and female parasites ([6]; 25 μM): remained coupled
total number of eggs vs control worms ([6]; 25 μM): significantly reduced
pairing of male and female parasites ([6]; 50 μM): separated
oviposition ([6]; 50 μM): complete lack of oviposition
Human cells SI (Selectivity Index) [7]: > 26.8
CC50 at 72 h [2]: > 500 µM
time to death of all female worms (S. mansoni adult worms [3]; 25 μM): ≤ 72 h
mortality at 25 µM (S. mansoni adult worms [3]; Schistosoma mansoni, 48 h, read-out: mortality of male parasites): 100%
EC50 (S. mansoni adult worms [3]; [9]): 18.7 µM
EC50 (S. mansoni adult worms [3]; [10]): 12.6 µM
EC50 (S. mansoni adult worms [3]; adult worms, male and female, 72 h, read-out: EC50 (schistosomicidal activity)): < 30 µM
CC50 at 72 h [4]: > 500 µM
Monkey cells SI (Selectivity Index) [5]: > 26.8

COc1cc(O)cc(O)c1C(=O)/C=C/c1ccccc1 [cardamonin]
in vitro effective concentration (S. mansoni adult worms [1]): 25 µM

Cc1ccc(C(C)C)cc1O [carvacrol]
in vitro effective concentration (S. mansoni adult worms [1]): 56.8 µM

CC(=O)Oc1cc(C(C)C)ccc1C [carvacryl acetate]
in vitro effective concentration (S. mansoni adult worms [1]): 42.16 µM

C=C1C(=O)O[C@@H]2/C=C(\CO)CC/C=C(\C)C[C@H](OC(=O)C(=C)[C@@H](O)CO)[C@@H]12 [cnicin]
in vitro effective concentration (S. mansoni adult worms [1]): 50 µM

C=C1C[C@@]23CC[C@H]4[C@@](C)(CCC[C@@]4(C)C(=O)O)[C@@H]2CC[C@@H]1C3 [ent-kaur-16-en-19-oic acid]
in vitro effective concentration (S. mansoni adult worms [1]): 26.1 µM

C/C=C/c1cc(OC)c2c(c1)[C@H](C)[C@@H](c1ccc(O)c(OC)c1)O2 [licarin A]
in vitro effective concentration (S. mansoni adult worms [1]): 30 µM

C=CC(C)(C)c1cc(/C=C/C(=O)c2ccc(O)cc2)c(OC)cc1O [licochalcone A]
in vitro effective concentration (S. mansoni adult worms [1]): 50 µM
